Legend:
H929 cells = assay: Cell viability assay in H929 cells (Cell TiterGlo); type: cell-based; settings: Homo sapiens, NCI-H929, 24 hours at 37° C.
How it was run: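 Cells seeded at 10,000 (96-well) or 2500 (384-well) cells/well; A431 dosed after overnight attachment, H929 dosed at seeding. 3-fold dilutions from 10 μM to 0.0005 μM, 0.1% final DMSO. Viability read by Cell TiterGlo luminescence after 24 hours at 37° C.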

A431 cells = assay: Cell viability assay in A431 cells (Cell TiterGlo); type: cell-based; settings: Homo sapiens, A-431, 24 hours at 37° C.
Method: Cell viability assays were performed using A431 or H929 cells. A431 cells were seeded in 96-well plates at 10,000 cells/well, and after overnight incubation, treated with compounds at 2-times the final concentration to result in a dose response of 3-fold dilutions from 10 μM to 0.0005 μM (50 μL/well, 0.1% final DMSO concentration). H929 cells were seeded in 96-well plates at 10,000 cells/well and treated immediately with compounds as described above. After 24 hours at 37° C., cell viability was measured using Cell TiterGlo reagent (Promega) with a luminescence reader. Alternately, cell viability assays were performed in 384-well format. A431 cells were seeded in 384-well plates at 2500 cells/well and, after overnight incubation, treated with compounds in a dose response of 3-fold dilutions from 10 μM to 0.0005 μM (25 nL/well, 0.1% final DMSO concentration). For the H929 viability assay, 25 nL/well of the compounds was dispensed into 384-well plates in a dose response as described above and cells were immediately seeded in 384-well plates at 2500 cells/well. After 24 hours at 37° C., cell viability was measured using Cell TiterGlo reagent (Promega) with a luminescence reader.

CDK9/Cyclin T1 = molecular target: T1, CDK9/Cyclin T1 (Homo sapiens, UniProt P50750); assay: CDK9 enzyme protocol (LANCE ULight TR-FRET kinase assay); type: biochemical; settings: 4 nM CDK9/Cyclin T1, 1000 μM ATP, 100 nM U-light MBP peptide, 30 minutes
T1 construct: purchased Carna Biosciences 04-110
T1 sequence (P50750 whole entry): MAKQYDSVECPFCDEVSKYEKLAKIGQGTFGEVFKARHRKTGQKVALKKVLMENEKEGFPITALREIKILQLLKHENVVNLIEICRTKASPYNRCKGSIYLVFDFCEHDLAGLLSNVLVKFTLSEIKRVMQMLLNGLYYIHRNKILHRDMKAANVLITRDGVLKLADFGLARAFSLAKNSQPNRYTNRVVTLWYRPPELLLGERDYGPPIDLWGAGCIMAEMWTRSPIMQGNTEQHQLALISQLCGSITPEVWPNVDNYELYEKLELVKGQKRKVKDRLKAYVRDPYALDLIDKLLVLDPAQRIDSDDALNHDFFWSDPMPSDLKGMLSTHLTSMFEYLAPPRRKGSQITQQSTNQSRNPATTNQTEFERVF
T1 sequence (O60563 whole entry partner): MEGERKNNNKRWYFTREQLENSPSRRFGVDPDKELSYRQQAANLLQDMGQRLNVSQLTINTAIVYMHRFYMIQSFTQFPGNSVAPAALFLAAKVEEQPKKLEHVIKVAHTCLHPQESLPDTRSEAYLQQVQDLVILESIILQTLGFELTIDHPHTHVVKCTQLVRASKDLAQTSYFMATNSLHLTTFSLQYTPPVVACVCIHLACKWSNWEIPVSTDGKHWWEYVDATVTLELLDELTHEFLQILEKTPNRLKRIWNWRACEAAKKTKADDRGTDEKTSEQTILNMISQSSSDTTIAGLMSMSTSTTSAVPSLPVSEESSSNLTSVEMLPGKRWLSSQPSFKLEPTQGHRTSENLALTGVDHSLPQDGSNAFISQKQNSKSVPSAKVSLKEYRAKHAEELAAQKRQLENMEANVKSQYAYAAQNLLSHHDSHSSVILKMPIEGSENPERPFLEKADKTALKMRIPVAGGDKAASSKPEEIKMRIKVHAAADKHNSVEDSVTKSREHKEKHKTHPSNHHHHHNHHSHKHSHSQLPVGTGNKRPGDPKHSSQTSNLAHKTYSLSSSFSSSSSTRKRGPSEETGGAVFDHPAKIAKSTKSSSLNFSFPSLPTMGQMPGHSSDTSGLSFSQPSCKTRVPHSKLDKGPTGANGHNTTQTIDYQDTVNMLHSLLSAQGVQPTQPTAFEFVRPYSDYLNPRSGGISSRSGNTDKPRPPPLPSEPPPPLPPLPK
How it was run: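 Human CDK9/Cyclin T1 (4 nM) phosphorylated 100 nM ULight-MBP peptide at 1000 μM ATP for 30 min in HEPES/MgCl2/Triton buffer. The reaction was stopped with 20 mM EDTA plus 0.5 nM Eu anti-phospho-MBP antibody and equilibrated 1 h. Read-out was TR-FRET (ex 320, em 615/665 nm).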

| Structure (SMILES) | EC50 (H929 cells) | EC50 (A431 cells) | IC50 (CDK9/Cyclin T1) |
| --- | --- | --- | --- |
| CNC(=O)N1CC=C(c2cc3c(-c4cc(F)ccc4OC)ncnc3[nH]2)CC1 [Example 17, 4-[4-(5-fluoro-2-methoxyphenyl)-7H-pyrrolo[2,3-d]pyrimidin-6-yl]-N-methyl-3,6-dihydropyridine-1(2H)-carboxamide] | 0.2 µM | 0.26 µM | 0.12 µM |
| COc1ccc(F)cc1-c1ncnc2[nH]c(C3=CCNCC3)cc12 [Example 3, 4-(5-fluoro-2-methoxyphenyl)-6-(1,2,3,6-tetrahydropyridin-4-yl)-7H-pyrrolo[2,3-d]pyrimidine] | 0.2 µM | 0.032 µM |  |
| COc1ccc(F)cc1-c1ncnc2[nH]c(C3CCNCC3)cc12 [Example 1, 4-(5-fluoro-2-methoxyphenyl)-6-(piperidin-4-yl)-7H-pyrrolo[2,3-d]pyrimidine] |  | 0.1 µM | 0.052 µM |
| COc1ccc(F)cc1-c1ncnc2[nH]c(C3=CCN(CC(=O)N(C)C)CC3)cc12 [Example 80, 2-{4-[4-(5-fluoro-2-methoxyphenyl)-7H-pyrrolo[2,3-d]pyrimidin-6-yl]-3,6-dihydropyridin-1(2H)-yl}-N,N-dimethylacetamide] | 0.12 µM | 0.13 µM |  |
| COc1ccc(F)cc1-c1ncnc2[nH]c(C3=CCN(Cc4ccc(NS(C)(=O)=O)cc4)CC3)cc12 [Example 81, N-[4-({4-[4-(5-fluoro-2-methoxyphenyl)-7H-pyrrolo[2,3-d]pyrimidin-6-yl]-3,6-dihydropyridin-1(2H)-yl}methyl)phenyl]methanesulfonamide] | 0.1 µM | 0.11 µM | 0.075 µM |
| Fc1ccc(NCc2ccccc2)cc1-c1ncnc2[nH]c(C3CCNCC3)cc12 [Example 9, N-benzyl-4-fluoro-3-[6-(piperidin-4-yl)-7H-pyrrolo[2,3-d]pyrimidin-4-yl]aniline] |  | 0.12 µM | 0.072 µM |
| COc1ccc(F)cc1-c1ncnc2[nH]c(C3=CCN(Cc4ccc(C(=O)O)cc4)CC3)cc12 [Example 72, 4-({4-[4-(5-fluoro-2-methoxyphenyl)-7H-pyrrolo[2,3-d]pyrimidin-6-yl]-3,6-dihydropyridin-1(2H)-yl}methyl)benzoic acid] | 2.4 µM | 5.2 µM | 0.11 µM |
| COc1ccc(F)cc1-c1ncnc2[nH]c(C3=CCN(C(=O)CO)CC3)cc12 [Example 7, 1-{4-[4-(5-fluoro-2-methoxyphenyl)-7H-pyrrolo[2,3-d]pyrimidin-6-yl]-3,6-dihydropyridin-1(2H)-yl}-2-hydroxyethanone] | 0.18 µM | 0.15 µM | 0.037 µM |
| COc1ccc(F)cc1-c1ncnc2[nH]c(C3=CCN(CC4CCNCC4)CC3)cc12 [Example 39, 4-(5-fluoro-2-methoxyphenyl)-6-[1-(piperidin-4-ylmethyl)-1,2,3,6-tetrahydropyridin-4-yl]-7H-pyrrolo[2,3-d]pyrimidine] | 4.74 µM |  | 0.21 µM |
| CS(=O)(=O)N1CC=C(c2cc3c(-c4cc(NCc5ccccc5)ccc4F)ncnc3[nH]2)CC1 [Example 29, N-benzyl-4-fluoro-3-{6-[1-(methylsulfonyl)-1,2,3,6-tetrahydropyridin-4-yl]-7H-pyrrolo[2,3-d]pyrimidin-4-yl}aniline] | 0.29 µM |  | 0.13 µM |
| COc1ccc(F)cc1-c1ncnc2[nH]c(C3=CCN(Cc4ccccn4)CC3)cc12 [Example 26, 4-(5-fluoro-2-methoxyphenyl)-6-[1-(pyridin-2-ylmethyl)-1,2,3,6-tetrahydropyridin-4-yl]-7H-pyrrolo[2,3-d]pyrimidine] | 0.61 µM |  | 0.19 µM |

Source: patent US9346813B2, “Substituted pyrrolo[2,3-d]pyrimindines as CDK9 kinase inhibitors” (AbbVie Inc., priority 2014, dated 2016)
